“And” between values parts separate entries of the source, which are not always exact repeats. Equal values may be shown once.
Columns and labels:
[1] = Acute toxicity in mice after a single i.v. administration; type: in vivo; details: mouse, in vivo, iv, single i.v., mg PQ diphosphate equivalent/kg; for MTD: weight loss not exceeding 5% during 5 days, read-out: Maximum tolerated dose (MTD)
Protocol: (§1) The acute toxicity in terms of a single administered dose is determined on female Swiss OF1 mice weighing 22 to 25 g. A series of dilutions of each compound is injected intravenously into groups of 10 mice (0.1 ml per 10 g of weight).
(§2) The lethal dose for 50% of mice (LD50) is determined by linear regression of the logits of the percentage of surviving animals as a function of the logarithm of the dose injected (in mg PQ diphosphate equivalent/kg) (Logit Weighted Transformation, Berkson J., 1953; J. Am. Stat. Assoc. 48, 565-599).
(§3) ^a : The products are administered i.v. to groups of 10 female Swiss
(§4) ^b : Maximum tolerated dose (MTD), defined as the highest dose
(§5) The acute toxicity in terms of a single administered dose is determined under the same conditions and according the protocol of Example 3.

female Swiss OF1 mice = assay: as above; type: in vivo; details: for Fold less toxic than PQ: mice, i.v.; for LD50 / Maximum tolerated dose (MTD): single i.v., mg PQ diphosphate equivalent/kg; for Maximum tolerated dose (MTD): weight loss not exceeding 5% during 5 days
Protocol: as §1, §2, §3, §4, §5

Plasmodium berghei [2] = assay: Therapeutic index in mice; type: in vivo, P. berghei; details: mice, i.v.
Description: The therapeutic index is defined as the ratio of the toxicity, expressed as LD50, to the therapeutic activity, expressed as CPD50, in mice.
^b : The therapeutic index (TI) is the ratio of LD50 to […]

Plasmodium berghei [3] = assay: Causal prophylactic activity on OF1 mice infected with Plasmodium berghei; type: in vivo, P. berghei (ANKA), in Swiss OF1 mice; details: for ED50 / ED100 / minimal effective dose: Plasmodium berghei, iv, 3 h; for ED50 / ED100 / minimal effective dose / CPD50, causal prophylactic dose curing 50% of the infected and treated animals / ED100, totally curative dose: single i.v. three hours after sporozoites, mg PQ diphosphate equivalent/kg; for ED50: read-out: CPD50, causal prophylactic dose curing 50% of the infected and treated animals; for ED100: read-out: ED100, totally curative dose; for minimal effective dose: read-out: Minimal effective dose (MED); for Activity relative to PQ, fold as active: model of malaria in mice; for CPD50, fold lower than for PQ: mouse, in vivo; for PQ index: ratio CPD50 of PQ/CPD50 of the compound
Protocol: Primaquine and its derivatives are tested in the model of malaria in rodents employing the infection of mice with Plasmodium berghei, the sporozoites originating from infected Anopheles stephensi mosquitoes. This model, developed by Most H., Herman R. & Schoenfeld C. (1967), Am. J. Trop. med. Hyg. 16, 572-575, enables the casual prophylatic (tissue schizonticidal) activity of new therapeutic compounds to be determined.
The procedure used is that derived from Most H. & Montuori W.A. (1975), Am. J. Trop. Med. Hyg. 24, 179-189. It involves the system P. berghei (ANKA)/Anopheles stephensi/Swiss OF1 mice. The ANKA strain of P. b. berghei is maintained cyclically on Anopheles stephensi. The Swiss OF1 strain mouse is especially sensitive to P. b. berghei, which produces an invariably fatal infection.
The legs, wings and abdomen are removed from female mosquitoes (80 to 100 individuals per preparation) and the latter are then homogenized at 4° C. in MEM medium (GIBCO) containing 10% of fetal calf serum using a glass Potter. The sporozoite suspension is then purified from the mosquito debris by two successive centrifugations (2 min at 50 g and 5 min at 200 g) and the collected supernatant is stored at 4° C. After counting in a Petroff-Hausser chamber, the number of parasites is adjusted by dilution with the same cold medium to a density of 2×10^5 sporozoites/ml.
The causal prophylactic activity of the compounds, that is to say the dose enabling 50% of the infected animals to be cured (CPD50) is obtained by analysis of the logits of the response (expressed as a % LTS) as a function of the dose (mg PQ/kg).
A volume of 0.5 ml of the suspension containing 10^5 sporozoites is injected i.v. into female Swiss OF1 mice weighing 20 to 25 g, used for the therapeutic tests. 1.2. Chemotherapeutic treatments
Groups of 20 to 25 mice, infected as described above, are treated with a single intravenous injection of primaquine diphosphate (PQ) or of its two derivatives in hydrochloride form, three hours after inoculation of the sporozoites. The volume injected is adjusted according to the weight of the mouse, on the basis of 0.25 ml for a weight of 25 g. The compounds are diluted in phosphatebuffered saline (PBS), pH 7.0, and the pH is adjusted to 7.0. Infected but untreated mice (5 per group), receive the buffer alone and serve to monitor the infectivity of the sporozoites.
The experimental mice are kept for a period of 50 days. The development of the parasitemia is followed by daily examination of blood smears stained for 60 min with 5% Giemsa in Sorensen buffer at pH 7.2, from day 5 up to day 15. The number of infected animals can thus be determined.
(§6) The animals infected using P. berchei sporozoites are treated three hours later with a single i.v. injection of the compounds. This test enables the casual prophylactic activity of the compounds, that is the dose enabling 50% of the infected animals to be cured (CPD50), to be defined. The dose is always expressed as mg of PQ diphosphate per kg.
as §6, with “berghei” for “berchei”

Compound	LD50 [1]	MTD [1]	Fold less toxic than PQ (female Swiss OF1 mice)	LD50 (female Swiss OF1 mice)	Maximum tolerated dose (MTD) (female Swiss OF1 mice)	Therapeutic index, fold higher than that of PQ (Plasmodium berghei [2])	ED50 (Plasmodium berghei [3])	ED100 (Plasmodium berghei [3])	minimal effective dose (Plasmodium berghei [3])	Activity relative to PQ, fold as active (Plasmodium berghei [3])	CPD50, fold lower than for PQ (Plasmodium berghei [3])	PQ index (Plasmodium berghei [3])	CPD50, causal prophylactic dose curing 50% of the infected and treated animals (Plasmodium berghei [3])	ED100, totally curative dose (Plasmodium berghei [3])
COc1cc(NC(C)CCCNC(=O)[C@@H](N)CC(=O)O)c2ncccc2c1 (stereo partly drawn) [ASP-PQ, N-(α-L-aspartyl)-PQ]	165 mg/kg	107 mg/kg	at least 5 -fold	165.5 (5.4) mg/kg and 165 (5.4) mg/kg	107.2 (14.2) mg/kg	at least 8 -fold	11.6 mg/kg	31 mg/kg	4.4 mg/kg	1.6 -fold	1.6 -fold	1.62	11.6 (0.9) mg/kg	31.1 (9.2) mg/kg
COc1cc(NC(C)CCCNC(=O)C[C@H](N)C(=O)O)c2ncccc2c1 (stereo partly drawn) [βASP-PQ, N-(β-L-aspartyl)-PQ]	164 mg/kg	109 mg/kg	at least 5 -fold	164.4 (6.2) mg/kg and 164 (6.2) mg/kg	109.1 (13.1) mg/kg	8 -fold	11.2 mg/kg	31 mg/kg	4.1 mg/kg	at least 1.6 -fold	1.6 -fold	1.68	11.2 (0.7) mg/kg	30.6 (5.7) mg/kg

From US5110935A, “New compounds which are active against the tissue forms of malaria and method of preparation” (Ire-Celltarg, S.A., priority 1988, dated 1992)
